{
  "source": "patent US20200165194A1",
  "about": "“ADDITIVE COMPOSITION FOR CULTURE MEDIUM, ADDITIVE COMPOUND FOR CULTURE MEDIUM, AND METHOD FOR CULTURE OF CELLS OR TISSUE USING SAME” (NISSAN CHEMICAL CORPORATION, priority 2017, published 2020)",
  "assay_type_in_all_cases": "cell-based",
  "key": {"[1]": {"test_system": "human stomach adenocarcinoma-derived cell line AGS", "assay": "Various human cancer cells-2, 3D culture, ATP assay (Experimental Example 6)", "details": "4 days; for viability at 5 µM / viability at 10 µM: Homo sapiens, 96 h, read-out: number of viable cells (RLU), relative value to control (100%)", "procedure": "(§1) Various human-derived cancer cells were precultured (single layer culture) in respective media shown below. […] The above-mentioned cells in the logarithmic growth phase were washed with PBS, a 0.25 w/v % trypsin-1 mmol/L EDTA (ethylenediaminetetraacetic acid) solution (manufactured by Wako Pure Chemical Industries, Ltd.) was added, and adherent cells were detached by incubating at 37° C. for 1-5 min. Each medium was added and the mixture was centrifuged. After resuspension in the same medium, each cell was recovered.\n(§2) The aforementioned various cells were suspended in respective deacylated gellan gum-containing or not containing media (deacylated gellan gum concentration was 0.015 w/v %), and seeded in a 96 well low attachment U-bottom plate (manufactured by Corning, #4520, deacylated gellan gum-free medium), or a low attachment flat bottom plate (manufactured by Corning, #3474, deacylated gellan gum-containing medium) at a cell concentration of 700-12000 cells/90 μL/well (all 3D culture). […] The amount of each compound solution to be added was 10 μL/well. As a control, a DMSO solution dissolved in a medium was added (DMSO final concentration 0.1%). […] When compared with the compound no-addition (control), one showing a value of not more than 119% as -, one showing a value of not less than 120% as ◯, and one showing a value of not less than 150% as ⊚ are shown in the eleventh table and the twelfth table. Unperformed test is left blank."}, "[2]": {"test_system": "human uterus cervix cancer-derived cell line HeLa", "assay": "Various human cancer cells-2, 3D culture, ATP assay (Experimental Example 6)", "details": "4 days", "procedure": "as §1, §2"}, "[3]": {"test_system": "human prostate cancer-derived cell DU145", "assay": "Various human cancer cells-2, 3D culture, ATP assay (Experimental Example 6)", "details": "4 days", "procedure": "as §1, §2"}, "[4]": {"test_system": "human epithelial-like cell cancer-derived cell line A431", "assay": "Various human cancer cells-2, 3D culture, ATP assay (Experimental Example 6)", "details": "4 days; for viability at 5 µM: Homo sapiens, A-431, 96 h, read-out: number of viable cells (RLU), relative value to control (100%)", "procedure": "as §1, §2"}, "[5]": {"test_system": "human malignant melanoma-derived cell line A375", "assay": "Various human cancer cells-2, 3D culture, ATP assay (Experimental Example 6)", "details": "4 days; for viability at 5 µM / viability at 10 µM: Homo sapiens, A-375, 96 h, read-out: number of viable cells (RLU), relative value to control (100%)", "procedure": "as §1, §2"}, "[6]": {"test_system": "Human mesenchymal stem cells (hMSC)", "assay": "Human mesenchymal stem cells-1: viable cell count, 2D and 3D culture (Experimental Example 9)", "details": "for cell proliferation rate (relative value): hMSC, 10 μM, 7 days, compound non-addition = 1; for number of hMSC cells (in words): two-dimensional and three-dimensional cell culture conditions", "procedure": "Human mesenchymal stem cells (hMSC, manufactured by TOYOBO) were precultured by a single layer culture method (2D) using an MF-medium mesenchymal stem cell proliferation medium (manufactured by TOYOBO). In three-dimensional culture method (3D), hMSC were suspended in a medium composition added with deacylated gellan gum, and seeded in a […] flat bottom Ultr-low Attachment surface plate (manufactured by Corning Incorporated, #3471) at 1.2×10^5 cells/2 mL/well. In 2D, hMSC were suspended in a deacylated gellan gum-free medium composition, and seeded in a 6-well flat bottom plate (manufactured by Corning Incorporated, #3516) at 4.0×10^4 cells/2 mL/well. […] As a control, DMSO was added at a final concentration of 0.1%. Seven days later, in the three-dimensional culture method, cells were collected from the wells, washed with PBS, and the supernatant was removed. Then, a trypsin 0.25 w/v % trypsin-1 mmol/L EDTA (ethylenediaminetetraacetic acid) solution (manufactured by Wako Pure Chemical Industries, Ltd.) was added and the cells were incubated at 37° C. for 2-5 min to disperse the spheres into single cells. The medium was added, and the mixture was centrifuged to remove the supernatant. Thereafter, the cells were resuspended in the same medium, a part was suspended in Trypan Blue (manufactured by Wako Pure Chemical Industries, Ltd.), and the number of viable cells was counted using automatic cell counter TC20 (manufactured by BIO-RAD).\nIn a single layer culture method, the cells were washed with PBS, 0.25 w/v % trypsin-1 mmol/L EDTA solution was added, and the cells were detached by incubating at 37° C. for 2-5 min. The medium was added, the mixture was centrifuged and the supernatant was removed. Thereafter, the cells were resuspended in the same medium, a part was suspended in Trypan Blue (manufactured by Wako Pure Chemical Industries, Ltd.) and the number of viable cells was counted using TC-20 (manufactured by BIO-RAD).\nCD34 antibody (APC, manufactured by BD Bioscience), CD73 (BV421, manufactured by BD Bioscience), CD29 (BB515, manufactured by BD Bioscience) were added to the above-mentioned cell suspension, and the mixture was incubated on ice for 30 min. The cells were washed twice with 2% SM buffer (2% FBS/PBS), SM containing 1 μg/mL of Propidium Iodide (PI) was added, and the mixture was analyzed with FACSAria (manufactured by Becton Dickinson). The cell number with compound non-addition (control) was taken as 1, and relative value with addition of each compound is calculated in the fifteenth table. The positive rates or negative rates of CD34, CD73, and CD29 of cells after three-dimensional culture (3D) under the conditions with no addition or addition of the compound are shown in the sixteenth table."}, "[7]": {"details": "low attachment U-bottom plate, 5 μM"}, "[8]": {"details": "low attachment U-bottom plate, 10 μM"}, "[9]": {"details": "low attachment flat bottom plate (gellan gum medium), 5 μM"}, "[10]": {"details": "low attachment flat bottom plate (gellan gum medium), 10 μM"}},
  "note": "Read-outs that look alike come from different tables or passages of the source.",
  "data": [
    {"smiles": "CC/C(=N\\NC(=O)NCc1ccccc1)c1ccc(O)c(C)c1O", "note": "[k-1:I-1]", "values": [
      {"measurement": "viability at 5 µM", "setting": "[1]; [7]", "result": "< 119", "unit": "%"},
      {"measurement": "viability at 10 µM", "setting": "[1]; [8]", "result": "120 to 150", "unit": "%"},
      {"measurement": "viability at 5 µM", "setting": "[1]; [9]", "result": "120 to 150", "unit": "%"},
      {"measurement": "viability at 10 µM", "setting": "[1]; [10]", "result": "120 to 150", "unit": "%"},
      {"measurement": "viability at 5 µM", "setting": "[2]; Homo sapiens, 96 h, low attachment U-bottom plate, 5 μM, read-out: number of viable cells (RLU), relative value to control (100%)", "result": "< 119", "unit": "%"},
      {"measurement": "viability at 10 µM", "setting": "[2]; Homo sapiens, 96 h, low attachment U-bottom plate, 10 μM, read-out: number of viable cells (RLU), relative value to control (100%)", "result": "< 119", "unit": "%"},
      {"measurement": "viability at 5 µM", "setting": "[3]; Homo sapiens, DU-145, 96 h, low attachment U-bottom plate, 5 μM, read-out: number of viable cells (RLU), relative value to control (100%)", "result": "< 119", "unit": "%"},
      {"measurement": "viability at 10 µM", "setting": "[3]; Homo sapiens, DU-145, 96 h, low attachment U-bottom plate, 10 μM, read-out: number of viable cells (RLU), relative value to control (100%)", "result": "120 to 150", "unit": "%"},
      {"measurement": "viability at 5 µM", "setting": "[3]; Homo sapiens, DU-145, 96 h, low attachment flat bottom plate (gellan gum medium), 5 μM, read-out: number of viable cells (RLU), relative value to control (100%)", "result": "120 to 150", "unit": "%"},
      {"measurement": "number of viable cells (RLU), relative value to control (100%)", "setting": "[3]; [10]", "result": "⊙"},
      {"measurement": "viability at 5 µM", "setting": "[4]; [7]", "result": "120 to 150", "unit": "%"},
      {"measurement": "viability at 5 µM", "setting": "[4]; [9]", "result": "< 119", "unit": "%"},
      {"measurement": "number of viable cells (RLU), relative value to control (100%)", "setting": "[4]; [8]", "result": "⊙"},
      {"measurement": "number of viable cells (RLU), relative value to control (100%)", "setting": "[4]; [10]", "result": "⊙"},
      {"measurement": "viability at 5 µM", "setting": "[5]; [7]", "result": "120 to 150", "unit": "%"},
      {"measurement": "viability at 10 µM", "setting": "[5]; [8]", "result": "120 to 150", "unit": "%"},
      {"measurement": "viability at 5 µM", "setting": "[5]; [9]", "result": "< 119", "unit": "%"},
      {"measurement": "viability at 10 µM", "setting": "[5]; [10]", "result": "< 119", "unit": "%"}
    ]},
    {"smiles": "CC/C(=N\\NC(=O)Nc1ccccc1)c1ccc(O)c(C)c1O", "note": "[k-1:H-10]", "values": [
      {"measurement": "cell proliferation rate (relative value)", "setting": "[6]; 2D", "result": 1.3},
      {"measurement": "cell proliferation rate (relative value)", "setting": "[6]; 3D (deacylated gellan gum)", "result": 1.7},
      {"measurement": "number of hMSC cells (in words)", "setting": "[6]", "result": "showed an effect of increasing the number of hMSC cells"}
    ]},
    {"smiles": "CC/C(=N\\NC(=O)C(C)Nc1ccccc1)c1ccc(O)c(C)c1O", "note": "(centres unmarked) [k-1:B-1]", "values": [
      {"measurement": "viability at 5 µM", "setting": "[1]; [9]", "result": "> 120", "unit": "%"},
      {"measurement": "number of viable cells (RLU), relative value to control (100%)", "setting": "[1]; [7]", "result": "⊙"},
      {"measurement": "number of viable cells (RLU), relative value to control (100%)", "setting": "[1]; [8]", "result": "⊙"},
      {"measurement": "number of viable cells (RLU), relative value to control (100%)", "setting": "[1]; [10]", "result": "⊙"},
      {"measurement": "number of viable cells (RLU), relative value to control (100%)", "setting": "[2]; [7]", "result": "⊙"},
      {"measurement": "number of viable cells (RLU), relative value to control (100%)", "setting": "[2]; [8]", "result": "⊙"},
      {"measurement": "number of viable cells (RLU), relative value to control (100%)", "setting": "[2]; [9]", "result": "⊙"},
      {"measurement": "number of viable cells (RLU), relative value to control (100%)", "setting": "[2]; [10]", "result": "⊙"},
      {"measurement": "number of viable cells (RLU), relative value to control (100%)", "setting": "[3]; [7]", "result": "⊙"},
      {"measurement": "number of viable cells (RLU), relative value to control (100%)", "setting": "[3]; [8]", "result": "⊙"},
      {"measurement": "number of viable cells (RLU), relative value to control (100%)", "setting": "[3]; [9]", "result": "⊙"},
      {"measurement": "number of viable cells (RLU), relative value to control (100%)", "setting": "[3]; [10]", "result": "⊙"},
      {"measurement": "number of viable cells (RLU), relative value to control (100%)", "setting": "[4]; [7]", "result": "⊙"},
      {"measurement": "number of viable cells (RLU), relative value to control (100%)", "setting": "[4]; [8]", "result": "⊙"},
      {"measurement": "number of viable cells (RLU), relative value to control (100%)", "setting": "[4]; [9]", "result": "⊙"},
      {"measurement": "number of viable cells (RLU), relative value to control (100%)", "setting": "[4]; [10]", "result": "⊙"},
      {"measurement": "viability at 5 µM", "setting": "[5]; [9]", "result": "> 120", "unit": "%"},
      {"measurement": "viability at 10 µM", "setting": "[5]; [10]", "result": "> 120", "unit": "%"},
      {"measurement": "number of viable cells (RLU), relative value to control (100%)", "setting": "[5]; [7]", "result": "⊙"},
      {"measurement": "number of viable cells (RLU), relative value to control (100%)", "setting": "[5]; [8]", "result": "⊙"}
    ]},
    {"smiles": "CCC(=NNC(=O)C(CC)Nc1ccccc1)c1ccc(O)c(C)c1O", "note": "(centres unmarked) [k-1:H-7]", "values": [
      {"measurement": "cell proliferation rate (relative value)", "setting": "[6]; 2D", "result": 1.9},
      {"measurement": "cell proliferation rate (relative value)", "setting": "[6]; 3D (deacylated gellan gum)", "result": 4},
      {"measurement": "number of hMSC cells (in words)", "setting": "[6]", "result": "showed an effect of increasing the number of hMSC cells"}
    ]}
  ]
}
